Experimental data as given in patent publication US5488060A, “Substituted thiadiazoles, compositions containing them and their use as antimicrobial and marine antifouling agents” (The Dow Chemical Company, priority 1994, dated 1996).
Converted amounts (≈) assume the structure as drawn. Where two headings read alike, the source gives them in different places.

What was measured:
Format in all cases: cell-based
Proteus vulgaris (Pv) = test: Minimum inhibitory concentration (MIC) in nutrient agar, Proteus vulgaris
Protocol: (§1) The antimicrobial activity of the compounds of the present invention is set forth as the minimum inhibitory concentration (MIC) for the active compounds and is determined for nine (9) bacteria, using nutrient agar, and seven (7) yeast and fungi, using malt yeast agar. This determination is conducted using a one percent solution of the test compound prepared in a mixture of acetone and water.
(§2) Nutrient agar is prepared at pH 6.8, representing a neutral medium, and at pH 8.2, representing an alkaline medium. The nutrient agars are prepared by adding 23 g of nutrient agar to one-liter of deionized water. In addition, the alkaline medium is prepared by adjusting a 0.04M solution of N-[tris-(hydroxymethyl)methyl]glycine buffered deionized water with concentrated sodium hydroxide to a pH of 8.5.
(§3) The test tubes containing the agar are cooled in a water bath until the temperature of the agar is 48° C. Then, an appropriate amount of the one percent solution of the test compound is added (except in the controls where no compound is added) to the respective test tubes so that the final concentrations are 500, […], 100, 50, 25, 10, 5, 2.5, 1.0 and zero parts per million of the test compound in the agar, thus having a known concentration of test compound dispersed therein. The contents of the test tubes are then transferred to respective petri plates. After drying for 24 hours, the petri plates containing nutrient agar are inoculated with bacteria and those containing malt yeast agar are inoculated with yeast and fungi.
(§4) The inoculation with bacteria is accomplished by using the following procedure. Twenty-four hour-cultures of each of the bacteria are prepared by incubating the respective bacteria in tubes containing nutrient broth for 24 hours at 30° C. in a shaker. Dilutions of each of the 24 hour-cultures are made so that nine separate suspensions (one for each of the nine test bacteria) are made, each containing 10^8 colony forming units (CFU) per mL of suspension of a particular bacteria. Aliquots of 0.3 mL of each of the bacterial suspensions are used to fill the individual wells of Steer's Replicator. For each microbial suspension, 0.3 mL was used to fill three wells (i.e., three wells of 0.3 mL each) so that for the nine different bacteria, 27 wells are filled. The Steer's Replicator is then used to inoculate both the neutral and alkaline pH nutrient agar petri plates.
(§5) The inoculated petri plates are incubated at 30° C. for 48 hours and then read to determine if the test compound which is incorporated into the agar prevented growth of the respective bacteria.

Candida albicans (Ca) = test: Minimum inhibitory concentration (MIC) in malt yeast agar, Candida albicans
Protocol: as §1
(§6) Malt yeast agar is prepared at pH 5.5 by adding 3 g yeast extract and 45 g malt agar per liter of deionized water. The specific agar is dispensed in 30 mL aliquots into 25×200 mm test tubes, capped and autoclaved for 15 minutes at 115° C.
as §3
(§7) The inoculation with the yeast and fungi is accomplished as follows. Cultures of yeast and fungi are incubated for seven days on malt yeast agar at 30° C. These cultures are used to prepare suspensions by the following procedure. A suspension of each organism is prepared by adding 10 mL of sterile saline and 10 microliters of octylphenoxy polyethoxy ethanol to the agar slant of yeast or fungi. The sterile saline/octylphenoxy potyethoxy ethanol solution is then agitated with a sterile swab to suspend the microorganism grown on the slant. Each resulting suspension is diluted into sterile saline (1 part suspension: 9 parts sterile saline). Aliquots of these dilutions are placed in individual wells of Steer's Replicator and petri plates inoculated as previously described. The petri plates are incubated at 30° C. and read after 48 hours for yeast and 72 hours for fungi.

[1] = system: Pseudomonas aeruginosa (Pa); test: Minimum inhibitory concentration (MIC) in nutrient agar, Pseudomonas aeruginosa; conditions: 30° C., 48 hours, read-out: Minimum Inhibitory Concentration, Pa
Protocol: as §1, §2, §3, §4, §5

Bacillus subtilis (Bs) = test: Minimum inhibitory concentration (MIC) in nutrient agar, Bacillus subtilis; conditions: 30° C., 48 hours, read-out: Minimum Inhibitory Concentration, Bs
Protocol: as §1, §2, §3, §4, §5

[2] = system: Saccharomyces cerevisiae (Sc); test: Minimum inhibitory concentration (MIC) in malt yeast agar, Saccharomyces cerevisiae; conditions: pH 5.5, malt yeast agar, 30° C., 48 hours for yeast, read-out: Minimum Inhibitory Concentration, SC
Protocol: as §1, §6, §3, §7

[3] = system: Enterobacter aerogenes (Ea); test: Minimum inhibitory concentration (MIC) in nutrient agar, Enterobacter aerogenes; conditions: Klebsiella aerogenes
Protocol: as §1, §2, §3, §4, §5

Trichoderma viride (Tv) = test: Minimum inhibitory concentration (MIC) in malt yeast agar, Trichoderma viride
Protocol: as §1, §6, §3, §7

[4] = system: Staphylococcus aureus (Sa); test: Minimum inhibitory concentration (MIC) in nutrient agar, Staphylococcus aureus
Protocol: as §1, §2, §3, §4, §5

[5] = system: Pseudomonas aeruginosa (PRD-10); test: Minimum inhibitory concentration (MIC) in nutrient agar, Pseudomonas aeruginosa PRD-10
Protocol: as §1, §2, §3, §4, §5

[6] = system: Salmonella choleraesuis (Se); test: Minimum inhibitory concentration (MIC) in nutrient agar, Salmonella choleraesuis; conditions: Salmonella enterica
Protocol: as §1, §2, §3, §4, §5

Escherichia coli (Ec) = test: Minimum inhibitory concentration (MIC) in nutrient agar, Escherichia coli
Protocol: as §1, §2, §3, §4, §5

[7] = system: Klebsiella pneumoniae (Kp); test: Minimum inhibitory concentration (MIC) in nutrient agar, Klebsiella pneumoniae
Protocol: as §1, §2, §3, §4, §5

Aspergillus niger (An) = test: Minimum inhibitory concentration (MIC) in malt yeast agar, Aspergillus niger; conditions: pH 5.5; malt yeast agar, 30° C., 72 hours for fungi; read-out: Minimum Inhibitory Concentration, An
Protocol: as §1, §6, §3, §7

Fusarium oxysporum (Fo) = test: Minimum inhibitory concentration (MIC) in malt yeast agar, Fusarium oxysporum; conditions: pH 5.5; malt yeast agar, 30° C., 72 hours for fungi; read-out: Minimum Inhibitory Concentration, Fo
Protocol: as §1, §6, §3, §7

[8] = system: Penicillium chrysogenum (Pc); test: Minimum inhibitory concentration (MIC) in malt yeast agar, Penicillium chrysogenum; conditions: 72 h, pH 5.5, read-out: Minimum Inhibitory Concentration, PC
Protocol: as §1, §6, §3, §7

[9] = system: Aureobasidium pullulan (Ap); test: Minimum inhibitory concentration (MIC) in malt yeast agar, Aureobasidium pullulan
Protocol: as §1, §6, §3, §7

[10] = 48 h, pH 6.8, read-out: Minimum Inhibitory Concentration, Pv
[11] = 48 h, pH 6.8, read-out: Minimum Inhibitory Concentration, Ea
[12] = 72 h, pH 5.5, read-out: Minimum Inhibitory Concentration, Tv
[13] = pH 8.2, nutrient agar, 30° C., 48 hours, read-out: Minimum Inhibitory Concentration, Sa
[14] = 48 h, pH 6.8, read-out: Minimum Inhibitory Concentration, PRD
[15] = 48 h, pH 6.8, read-out: Minimum Inhibitory Concentration, SC
[16] = 48 h, pH 6.8, read-out: Minimum Inhibitory Concentration, Ec
[17] = pH 6.8, nutrient agar, 30° C., 48 hours, read-out: Minimum Inhibitory Concentration, Kp
[18] = pH 5.5, malt yeast agar, 30° C., read-out: Minimum Inhibitory Concentration, Ap
[19] = 48 h, pH 8.2, read-out: Minimum Inhibitory Concentration, Pv
[20] = 48 h, pH 5.5, read-out: Minimum Inhibitory Concentration, Ca
[21] = 48 h, pH 8.2, read-out: Minimum Inhibitory Concentration, Ea
[22] = pH 6.8, nutrient agar, 30° C., 48 hours, read-out: Minimum Inhibitory Concentration, Sa
[23] = 48 h, pH 8.2, read-out: Minimum Inhibitory Concentration, PRD
[24] = 48 h, pH 8.2, read-out: Minimum Inhibitory Concentration, SC
[25] = 48 h, pH 8.2, read-out: Minimum Inhibitory Concentration, Ec
[26] = 48 h, pH 8.2, read-out: Minimum Inhibitory Concentration, Kp

| Structure (SMILES) | MIC (Proteus vulgaris (Pv); [10]) | MIC ([1]; pH 6.8, nutrient agar) | MIC ([1]; pH 8.2, nutrient agar) | MIC (Bacillus subtilis (Bs); pH 6.8, nutrient agar) | MIC (Bacillus subtilis (Bs); pH 8.2, nutrient agar) | MIC [2] | MIC [3, 11] | MIC (Trichoderma viride (Tv); [12]) | MIC [4, 13] | MIC [5, 14] | MIC [6, 15] | MIC (Escherichia coli (Ec); [16]) | MIC [7, 17] | MIC (Aspergillus niger (An)) | MIC (Fusarium oxysporum (Fo)) | MIC [8] | MIC [9, 18] | MIC (Proteus vulgaris (Pv); [19]) | MIC (Candida albicans (Ca); [20]) | MIC [3, 21] | further results |
| --- | --- | --- | --- | --- | --- | --- | --- | --- | --- | --- | --- | --- | --- | --- | --- | --- | --- | --- | --- | --- | --- |
| N#CSc1nsnc1-c1ccc([N+](=O)[O-])cc1 [Example XIII, 4-(4-nitrophenyl)-3-thiocyanato-1,2,5-thiadiazole] | 500 µg/mL (≈ 1890 µM) | 500 µg/mL (≈ 1890 µM) | > 100 µg/mL | 25 µg/mL (≈ 94.6 µM) | > 100 µg/mL | < 10 µg/mL | 500 µg/mL (≈ 1890 µM) | < 10 µg/mL | > 100 µg/mL | 500 µg/mL (≈ 1890 µM) | 500 µg/mL (≈ 1890 µM) | 500 µg/mL (≈ 1890 µM) | 100 µg/mL (≈ 378 µM) | < 10 µg/mL | < 10 µg/mL | < 10 µg/mL | < 10 µg/mL | – | – | – | MIC (Proteus vulgaris (Pv); pH 8.2, nutrient agar, 30° C., 48 hours, read-out: Minimum Inhibitory Concentration, Pv): > 100 µg/mL; MIC (Candida albicans (Ca); pH 5.5, malt yeast agar, 30° C., 48 hours for yeast, read-out: Minimum Inhibitory Concentration, Ca): < 10 µg/mL; MIC ([3]; pH 8.2, nutrient agar, 30° C., 48 hours, read-out: Minimum Inhibitory Concentration, Ea): > 100 µg/mL; MIC ([4]; 48 h, pH 6.8, read-out: Minimum Inhibitory Concentration, Sa): 50 µg/mL (≈ 189 µM); MIC ([5]; pH 8.2, nutrient agar, 30° C., 48 hours, read-out: Minimum Inhibitory Concentration, PRD): > 100 µg/mL; MIC ([6]; pH 8.2, nutrient agar, 30° C., 48 hours, read-out: Minimum Inhibitory Concentration, SC): > 100 µg/mL; MIC (Escherichia coli (Ec); pH 8.2, nutrient agar, 30° C., 48 hours, read-out: Minimum Inhibitory Concentration, Ec): > 100 µg/mL; MIC ([7]; pH 8.2, nutrient agar, 30° C., 48 hours, read-out: Minimum Inhibitory Concentration, Kp): > 100 µg/mL |
| N#CSc1nsnc1-c1cccs1 [Example XIV, 4-(2-Thiophene)-3-thiocyanato-1,2,5-thiadiazole] | – | 500 µg/mL (≈ 2220 µM) | 500 µg/mL (≈ 2220 µM) | 25 µg/mL (≈ 111 µM) | 100 µg/mL (≈ 444 µM) | < 10 µg/mL | – | < 10 µg/mL | – | 500 µg/mL (≈ 2220 µM) | – | 50 µg/mL (≈ 222 µM) | 25 µg/mL (≈ 111 µM) | < 10 µg/mL | < 10 µg/mL | < 10 µg/mL | < 10 µg/mL | 500 µg/mL (≈ 2220 µM) | 25 µg/mL (≈ 111 µM) | 500 µg/mL (≈ 2220 µM) | MIC (Proteus vulgaris (Pv); pH 6.8, nutrient agar, 30° C., 48 hours, read-out: Minimum Inhibitory Concentration, Pv): 50 µg/mL (≈ 222 µM); MIC ([3]; pH 6.8, nutrient agar, 30° C., 48 hours, read-out: Minimum Inhibitory Concentration, Ea): 100 µg/mL (≈ 444 µM); MIC ([4]; 48 h, pH 8.2, read-out: Minimum Inhibitory Concentration, Sa): 500 µg/mL (≈ 2220 µM); MIC [4, 22]: 25 µg/mL (≈ 111 µM); MIC [5, 23]: 500 µg/mL (≈ 2220 µM); MIC [6, 24]: 500 µg/mL (≈ 2220 µM); MIC ([6]; pH 6.8, nutrient agar, 30° C., 48 hours, read-out: Minimum Inhibitory Concentration, SC): 50 µg/mL (≈ 222 µM); MIC (Escherichia coli (Ec); [25]): 500 µg/mL (≈ 2220 µM); MIC [7, 26]: 500 µg/mL (≈ 2220 µM) |
| N#CSCSc1nsnc1-c1cccc(Cl)c1 [Example XIX, 4-(3-Chlorophenyl)-3-thiocyanatomethylthio-1,2,5-thiadiazole] | 500 µg/mL (≈ 1670 µM) | 500 µg/mL (≈ 1670 µM) | > 500 µg/mL | 9 µg/mL (≈ 30 µM) | 9 µg/mL (≈ 30 µM) | 1 µg/mL (≈ 3.34 µM) | 500 µg/mL (≈ 1670 µM) | – | 9 µg/mL (≈ 30 µM) | 500 µg/mL (≈ 1670 µM) | 500 µg/mL (≈ 1670 µM) | 500 µg/mL (≈ 1670 µM) | 500 µg/mL (≈ 1670 µM) | 5 µg/mL (≈ 16.7 µM) | 500 µg/mL (≈ 1670 µM) | 2.5 µg/mL (≈ 8.34 µM) | – | > 500 µg/mL | 25 µg/mL (≈ 83.4 µM) | > 500 µg/mL | MIC (Trichoderma viride (Tv); pH 5.5, malt yeast agar, 30° C., 72 hours for fungi, read-out: Minimum Inhibitory Concentration, Tv): > 500 µg/mL; MIC [4, 22]: 9 µg/mL (≈ 30 µM); MIC [5, 23]: > 500 µg/mL; MIC [6, 24]: > 500 µg/mL; MIC (Escherichia coli (Ec); [25]): 500 µg/mL (≈ 1670 µM); MIC [7, 26]: > 500 µg/mL; MIC ([9]; pH 5.5, read-out: Minimum Inhibitory Concentration, Ap): 2.5 µg/mL (≈ 8.34 µM) |
